Columns and labels:
[1] = target: M. jannaschii Adriase^S1A; settings: MST, 25° C., 10 nM FITC peptide, three independent measurements
Description: MST measurements were performed with a Monolith NT.115 (Nanotemper), using various MST power and laser intensity settings to test the general validity of the obtained data. The final results were obtained in three independent experiments and measured at a temperature of 25° C., using MST power 80% and laser intensity 40%.
In a second set of MST experiments, a more detailed analysis of the binding motif (FIG. 18A-F and table in FIG. 5B) was performed using synthetic peptides (Genscript) based on the M. jannaschii MtrA sequence. […] For the MST measurements, 10 nM of these peptides were mixed with a serial dilution of M. jannaschii Adriase^S1A and the experiment was otherwise performed as described for the M. jannaschii MtrA^Δ194-245-Adriase^S1A and the M. jannaschii MtrA^Δ174-245 Adriase^S1A interactions, above.

[2] = tested on: M. mazei Adriase; assay: Ligation motif analysis with primary and secondary substrates; type: biochemical; settings: 25 μM substrates, 400× molar excess over Adriase, 50° C.

M. jannaschii Adriase^S1A, sequence (as listed by the source): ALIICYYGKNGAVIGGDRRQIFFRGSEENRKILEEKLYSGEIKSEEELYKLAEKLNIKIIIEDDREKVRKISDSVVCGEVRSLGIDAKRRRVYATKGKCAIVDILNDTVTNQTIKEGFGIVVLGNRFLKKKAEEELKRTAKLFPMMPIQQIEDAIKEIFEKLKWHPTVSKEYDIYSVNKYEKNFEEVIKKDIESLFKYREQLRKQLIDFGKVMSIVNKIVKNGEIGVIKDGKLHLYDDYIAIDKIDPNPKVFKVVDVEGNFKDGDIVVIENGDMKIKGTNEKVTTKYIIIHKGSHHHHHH

Sequence	KD [1]	Adriase activity with substrate [2]
KECLSKDPGAIDEDPFIIELKFITC [(5)KDPGA(10)]	as tightly as M. jannaschii MtrA^Δ194-245	
PGAFDADP (Methanosarcina mazei Go1; M. mazei PGA(5); listed as Methanosarcina mazei) [M. mazei MtrA-derived secondary substrate peptide]		No Adriase activity

— US20260275319A1, “ARCHAEAL PEPTIDE RECOMBINASE – A NOVEL PEPTIDE LIGATING ENZYME” (MAX-PLANCK-GESELLSCHAFT ZUR FÖRDERUNG DER WISSENSCHAFTEN …, priority 2019, published 2026)
